Laboratory results: ChEMBL document CHEMBL1201862, “PubChem BioAssay data set” (2004)
The source made the active and inactive calls.

Assays:
[1] = molecular target: T1, Calpain-2 catalytic subunit (Sus scrofa, UniProt P43367); assay: m-calpain protease blockers, concentration series – biochemical, fluorogenic peptide substrate, dose response (AID 1420); assay type: functional
T1 sequence (P43367 whole entry): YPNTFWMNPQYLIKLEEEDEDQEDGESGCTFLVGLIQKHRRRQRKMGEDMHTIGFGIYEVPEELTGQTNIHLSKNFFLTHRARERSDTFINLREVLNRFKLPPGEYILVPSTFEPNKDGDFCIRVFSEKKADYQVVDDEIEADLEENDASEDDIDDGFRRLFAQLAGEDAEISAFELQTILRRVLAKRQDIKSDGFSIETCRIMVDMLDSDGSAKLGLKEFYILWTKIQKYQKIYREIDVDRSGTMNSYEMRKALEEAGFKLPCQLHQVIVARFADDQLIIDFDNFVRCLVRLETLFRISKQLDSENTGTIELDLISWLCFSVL

[2] = molecular target: T2, Carboxy-terminal domain RNA polymerase II polypeptide A small phosphatase 1 (Homo sapiens, UniProt Q9GZU7); assay: CTDSP1 inhibitors, concentration-response, biochemical, absorbance readout, ultra-high-throughput screen actives (AID 540297); assay type: functional
T2 sequence (Q9GZU7 whole entry): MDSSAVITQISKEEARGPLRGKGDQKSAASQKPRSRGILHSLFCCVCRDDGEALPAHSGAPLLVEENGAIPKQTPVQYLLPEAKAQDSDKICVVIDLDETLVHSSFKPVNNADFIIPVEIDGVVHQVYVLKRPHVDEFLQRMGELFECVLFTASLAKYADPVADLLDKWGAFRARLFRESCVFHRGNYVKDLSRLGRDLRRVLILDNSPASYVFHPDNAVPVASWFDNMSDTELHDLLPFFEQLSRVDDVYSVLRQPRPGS

[3] = viability of PTEN-deleted HCT116 cells – cell-based, HCT116 PTEN knockout, dose response (AID 1047); assay type: functional;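 also: HCT116 colon tumor cells with PTEN knocked out; cells exposed to compound for 60 hours before readout; potency for loss of cell viability measured by luminescence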
[4] = viability of HCT116 lacking mutant beta-catenin – cell-based, human colon tumor, dose response (AID 1045); assay type: functional;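 also: HCT116 colon tumor cells with beta catenin knocked out; cells exposed to compound for 60 hours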
[5] = reduction of Shn3 3'UTR-driven luciferase in osteoblasts – cell-based, Clone20 osteoblasts, firefly luciferase, cherry-picked, dose response (AID 624132); assay type: functional;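 also: firefly luciferase luminescence from reporter carrying the Shn3 3'UTR in osteoblasts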
[6] = non-specific 3'UTR reporter inhibition in Clone20-Shn3RL – cell-based, Renilla luciferase, cherry-picked, counter-screen for Shn3 inhibitor project, dose response (AID 624133); assay type: functional
[7] = molecular target: Voltage-dependent T-type calcium channel subunit alpha-1H (Homo sapiens, UniProt O95180); assay type: functional;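 also: channel activity triggered by adding a high calcium stimulation buffer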
Sequence of Voltage-dependent T-type calcium channel subunit alpha-1H (O95180 whole entry): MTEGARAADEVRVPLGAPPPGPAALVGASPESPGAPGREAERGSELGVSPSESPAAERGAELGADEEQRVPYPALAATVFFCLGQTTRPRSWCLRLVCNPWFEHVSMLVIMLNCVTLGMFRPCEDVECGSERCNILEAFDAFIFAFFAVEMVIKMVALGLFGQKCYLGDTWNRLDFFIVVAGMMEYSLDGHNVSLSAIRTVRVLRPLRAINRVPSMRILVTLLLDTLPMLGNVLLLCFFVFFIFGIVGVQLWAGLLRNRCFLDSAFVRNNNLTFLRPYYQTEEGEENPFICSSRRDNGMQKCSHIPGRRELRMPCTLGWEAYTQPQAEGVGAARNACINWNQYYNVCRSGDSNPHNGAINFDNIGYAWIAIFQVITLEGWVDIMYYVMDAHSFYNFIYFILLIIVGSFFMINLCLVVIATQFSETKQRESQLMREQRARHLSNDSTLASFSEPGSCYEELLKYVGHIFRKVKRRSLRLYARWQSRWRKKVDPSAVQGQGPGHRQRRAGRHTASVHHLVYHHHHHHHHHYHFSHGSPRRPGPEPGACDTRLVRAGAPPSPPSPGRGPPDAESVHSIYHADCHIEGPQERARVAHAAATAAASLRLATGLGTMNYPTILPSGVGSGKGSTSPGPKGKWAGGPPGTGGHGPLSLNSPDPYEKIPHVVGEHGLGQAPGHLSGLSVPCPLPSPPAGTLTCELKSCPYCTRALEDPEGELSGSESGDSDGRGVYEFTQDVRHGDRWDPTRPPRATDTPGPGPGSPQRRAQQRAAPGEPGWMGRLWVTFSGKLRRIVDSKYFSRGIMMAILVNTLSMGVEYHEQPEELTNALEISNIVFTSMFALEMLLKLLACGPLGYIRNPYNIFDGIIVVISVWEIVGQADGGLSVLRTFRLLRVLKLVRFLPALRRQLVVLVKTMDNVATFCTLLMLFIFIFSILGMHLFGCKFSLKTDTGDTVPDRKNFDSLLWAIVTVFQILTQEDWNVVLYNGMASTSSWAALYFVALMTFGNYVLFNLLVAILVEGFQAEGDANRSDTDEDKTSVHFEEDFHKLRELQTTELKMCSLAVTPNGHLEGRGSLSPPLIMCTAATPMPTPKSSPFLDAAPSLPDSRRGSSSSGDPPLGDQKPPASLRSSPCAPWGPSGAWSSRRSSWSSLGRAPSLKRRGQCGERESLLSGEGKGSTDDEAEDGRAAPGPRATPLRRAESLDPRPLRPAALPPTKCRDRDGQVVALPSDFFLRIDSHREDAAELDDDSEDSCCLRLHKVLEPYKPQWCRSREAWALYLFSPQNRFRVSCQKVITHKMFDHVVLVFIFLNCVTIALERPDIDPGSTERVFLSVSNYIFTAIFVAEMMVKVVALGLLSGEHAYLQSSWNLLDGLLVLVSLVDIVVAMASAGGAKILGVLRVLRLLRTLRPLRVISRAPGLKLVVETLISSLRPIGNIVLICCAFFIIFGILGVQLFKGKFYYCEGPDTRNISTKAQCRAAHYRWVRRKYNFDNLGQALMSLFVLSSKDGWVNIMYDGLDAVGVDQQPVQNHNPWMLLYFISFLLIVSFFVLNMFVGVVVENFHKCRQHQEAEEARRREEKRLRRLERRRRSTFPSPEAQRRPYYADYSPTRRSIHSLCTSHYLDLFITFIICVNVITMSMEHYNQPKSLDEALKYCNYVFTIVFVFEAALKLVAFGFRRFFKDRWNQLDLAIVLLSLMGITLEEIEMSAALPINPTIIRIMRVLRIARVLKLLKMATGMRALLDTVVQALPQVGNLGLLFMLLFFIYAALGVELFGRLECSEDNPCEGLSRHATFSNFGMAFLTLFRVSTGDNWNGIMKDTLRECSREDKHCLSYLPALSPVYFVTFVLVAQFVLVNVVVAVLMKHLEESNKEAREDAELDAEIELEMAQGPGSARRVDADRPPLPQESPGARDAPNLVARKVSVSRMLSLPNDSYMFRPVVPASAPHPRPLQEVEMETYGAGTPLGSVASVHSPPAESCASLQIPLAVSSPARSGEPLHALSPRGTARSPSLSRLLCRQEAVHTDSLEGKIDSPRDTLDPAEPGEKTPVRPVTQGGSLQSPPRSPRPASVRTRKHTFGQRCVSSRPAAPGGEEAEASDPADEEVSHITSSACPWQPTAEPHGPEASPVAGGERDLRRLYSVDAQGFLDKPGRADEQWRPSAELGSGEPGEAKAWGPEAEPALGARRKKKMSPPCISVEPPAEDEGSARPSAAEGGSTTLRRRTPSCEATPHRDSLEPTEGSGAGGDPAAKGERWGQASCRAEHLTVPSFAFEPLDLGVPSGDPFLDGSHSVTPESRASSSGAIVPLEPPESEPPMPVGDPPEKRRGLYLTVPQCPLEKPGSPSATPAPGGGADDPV

[8] = molecular target: T3, Replicative DNA helicase DnaB (Mycobacterium tuberculosis, UniProt P9WMR3); assay: DnaB intein splicing inhibitors, dose response, biochemical, cell-free fluorescence (AID 449749); assay type: functional
T3 sequence (P9WMR3 whole entry): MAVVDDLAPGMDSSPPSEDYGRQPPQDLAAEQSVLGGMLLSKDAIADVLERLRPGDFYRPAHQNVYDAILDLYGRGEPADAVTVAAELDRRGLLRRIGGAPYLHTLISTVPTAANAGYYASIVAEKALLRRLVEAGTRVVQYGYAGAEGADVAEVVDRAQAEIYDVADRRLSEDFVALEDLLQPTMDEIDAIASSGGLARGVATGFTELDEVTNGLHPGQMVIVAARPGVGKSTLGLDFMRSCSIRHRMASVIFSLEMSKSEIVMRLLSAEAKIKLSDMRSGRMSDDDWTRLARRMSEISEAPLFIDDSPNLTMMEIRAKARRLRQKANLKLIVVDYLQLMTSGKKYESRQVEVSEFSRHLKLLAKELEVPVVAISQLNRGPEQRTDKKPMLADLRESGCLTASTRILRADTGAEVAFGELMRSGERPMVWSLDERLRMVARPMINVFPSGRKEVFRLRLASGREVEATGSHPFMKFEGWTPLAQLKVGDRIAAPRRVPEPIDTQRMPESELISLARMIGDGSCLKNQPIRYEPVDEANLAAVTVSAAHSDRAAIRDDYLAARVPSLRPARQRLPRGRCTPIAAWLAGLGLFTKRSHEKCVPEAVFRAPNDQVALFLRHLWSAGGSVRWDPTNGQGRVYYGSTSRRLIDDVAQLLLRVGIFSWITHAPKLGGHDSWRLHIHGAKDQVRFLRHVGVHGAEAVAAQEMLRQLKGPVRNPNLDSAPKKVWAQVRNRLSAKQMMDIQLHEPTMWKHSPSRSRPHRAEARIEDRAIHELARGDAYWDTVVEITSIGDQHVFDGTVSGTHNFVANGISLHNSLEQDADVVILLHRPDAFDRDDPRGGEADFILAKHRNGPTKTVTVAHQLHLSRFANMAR

Protein RecA = molecular target: T4, Protein RecA (Mycobacterium tuberculosis, UniProt P9WHJ3); assay: Fluorescence Cell-Free Homogeneous Dose Retest to Identify Inhibitors of RecA-Intein Splicing Activity. [Related pubchem assays (depositor defined):AID2097, AID2223, AID489010, AID492950]; assay type: functional
T4 sequence (P9WHJ3 whole entry): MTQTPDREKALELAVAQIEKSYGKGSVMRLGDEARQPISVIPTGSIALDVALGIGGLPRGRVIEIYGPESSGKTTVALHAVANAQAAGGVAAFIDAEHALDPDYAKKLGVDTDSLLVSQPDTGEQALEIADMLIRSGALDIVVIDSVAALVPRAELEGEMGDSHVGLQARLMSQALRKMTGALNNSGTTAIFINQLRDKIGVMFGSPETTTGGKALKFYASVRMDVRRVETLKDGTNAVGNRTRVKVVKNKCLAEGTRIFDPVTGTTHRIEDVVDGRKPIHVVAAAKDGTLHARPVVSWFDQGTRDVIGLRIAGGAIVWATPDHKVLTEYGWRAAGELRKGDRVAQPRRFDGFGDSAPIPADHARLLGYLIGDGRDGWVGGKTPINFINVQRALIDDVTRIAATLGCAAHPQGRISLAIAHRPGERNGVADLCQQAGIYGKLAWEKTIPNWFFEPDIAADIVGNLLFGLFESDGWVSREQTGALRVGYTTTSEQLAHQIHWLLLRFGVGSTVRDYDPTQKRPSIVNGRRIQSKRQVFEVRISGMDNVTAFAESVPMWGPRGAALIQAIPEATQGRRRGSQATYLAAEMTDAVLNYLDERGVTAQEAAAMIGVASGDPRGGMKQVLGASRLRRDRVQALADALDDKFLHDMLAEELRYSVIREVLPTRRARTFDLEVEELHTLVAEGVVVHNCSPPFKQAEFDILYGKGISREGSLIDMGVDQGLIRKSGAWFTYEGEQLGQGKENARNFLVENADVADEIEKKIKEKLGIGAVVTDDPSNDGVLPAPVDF

cells [9] = assay type: functional, cell-based
cells [10] = assay type: functional, cell-based; remark: listed apart in the source
[11] = viability of uninfected HEp-2 cells – cell-based, HTS, cytotoxicity control for RSV inhibitor project, dose response (AID 2410); assay type: functional; conditions: human respiratory syncytial virus
[12] = Luminescence Cell-Based Dose Retest to Confirm Inhibitors of Cancer Stem Cells. [Related pubchem assays (depositor defined):AID2717, AID2721]; assay type: functional; conditions: Homo sapiens
Cytochrome P450 2C19 = Cytochrome P450 2C19 (Homo sapiens, UniProt P33261); assay: Cytochrome panel assay with activity outcomes. Panel member name: p450-cyp2c19 Compounds with AC50 equal or less than 10 uM are considered active; assay type: functional; conditions: read-out: AC50
Sequence of Cytochrome P450 2C19 (P33261 whole entry): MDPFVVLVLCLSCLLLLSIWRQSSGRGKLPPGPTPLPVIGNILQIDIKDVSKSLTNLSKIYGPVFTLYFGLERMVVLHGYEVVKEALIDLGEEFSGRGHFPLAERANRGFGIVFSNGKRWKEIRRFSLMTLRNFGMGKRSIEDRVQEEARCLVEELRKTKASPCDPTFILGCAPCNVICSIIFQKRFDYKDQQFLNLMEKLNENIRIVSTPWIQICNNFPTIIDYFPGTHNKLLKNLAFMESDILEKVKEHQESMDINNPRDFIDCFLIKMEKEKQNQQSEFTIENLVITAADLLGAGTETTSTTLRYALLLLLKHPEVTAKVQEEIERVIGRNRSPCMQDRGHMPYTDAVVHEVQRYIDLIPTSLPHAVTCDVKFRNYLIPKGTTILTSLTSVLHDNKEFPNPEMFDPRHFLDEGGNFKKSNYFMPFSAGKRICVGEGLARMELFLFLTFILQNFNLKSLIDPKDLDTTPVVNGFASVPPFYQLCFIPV

Cytochrome P450 3A4 = Cytochrome P450 3A4 (Homo sapiens, UniProt P08684);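 also: CYP3A4 tested as one member of a cytochrome P450 panel screen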
Sequence of Cytochrome P450 3A4 (P08684 whole entry): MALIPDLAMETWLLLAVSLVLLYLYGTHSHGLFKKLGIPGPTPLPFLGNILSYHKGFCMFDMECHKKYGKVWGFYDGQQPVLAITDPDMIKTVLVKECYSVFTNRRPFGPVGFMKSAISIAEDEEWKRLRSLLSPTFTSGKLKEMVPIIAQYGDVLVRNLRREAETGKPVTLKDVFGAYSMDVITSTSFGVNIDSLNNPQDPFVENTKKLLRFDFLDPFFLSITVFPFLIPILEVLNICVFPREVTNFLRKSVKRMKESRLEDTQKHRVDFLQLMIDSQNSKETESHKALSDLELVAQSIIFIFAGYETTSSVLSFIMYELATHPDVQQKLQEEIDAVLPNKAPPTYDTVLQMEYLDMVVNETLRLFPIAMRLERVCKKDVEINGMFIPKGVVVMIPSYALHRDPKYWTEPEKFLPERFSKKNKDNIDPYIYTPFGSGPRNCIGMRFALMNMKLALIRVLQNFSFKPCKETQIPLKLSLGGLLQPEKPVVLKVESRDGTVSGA

Large T antigen = Large T antigen (Simian virus 40, UniProt P03070); assay type: functional, Betapolyomavirus macacae;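 also: Confirmatory-stage PubChem screen for compounds that inhibit SV40 T antigen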
Sequence of Large T antigen (P03070 whole entry): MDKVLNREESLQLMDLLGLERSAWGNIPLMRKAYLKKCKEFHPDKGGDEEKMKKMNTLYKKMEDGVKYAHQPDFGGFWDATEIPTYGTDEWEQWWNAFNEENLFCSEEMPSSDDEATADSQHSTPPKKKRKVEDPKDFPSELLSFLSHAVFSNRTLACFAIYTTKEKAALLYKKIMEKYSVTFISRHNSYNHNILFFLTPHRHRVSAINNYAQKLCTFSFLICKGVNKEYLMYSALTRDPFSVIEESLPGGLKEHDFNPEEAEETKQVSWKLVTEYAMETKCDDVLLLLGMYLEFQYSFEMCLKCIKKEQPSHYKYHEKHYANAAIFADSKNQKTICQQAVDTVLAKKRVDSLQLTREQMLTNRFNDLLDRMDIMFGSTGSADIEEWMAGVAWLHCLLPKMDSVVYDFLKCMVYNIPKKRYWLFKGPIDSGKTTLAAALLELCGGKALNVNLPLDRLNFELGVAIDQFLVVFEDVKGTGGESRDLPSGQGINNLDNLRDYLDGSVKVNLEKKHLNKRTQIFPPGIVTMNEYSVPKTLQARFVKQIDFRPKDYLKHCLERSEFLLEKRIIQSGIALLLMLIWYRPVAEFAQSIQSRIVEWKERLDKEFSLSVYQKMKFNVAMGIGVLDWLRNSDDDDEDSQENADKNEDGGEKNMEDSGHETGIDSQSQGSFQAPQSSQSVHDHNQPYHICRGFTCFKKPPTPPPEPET

[13] = alpha-synuclein stem-loop luciferase translation blockers – H4 neuroglioma cells, luminescence, confirmation (AID 1988); assay type: functional, cell-based
[14] = luciferase reporter signal suppression in cells – H4 neuroglioma cells, luminescence, dose response (AID 1990); assay type: functional, cell-based
[15] = Luminescence Cell-Based Dose Response HTS to Identify Inhibitors of 5'UTR Stem-Loop Driven Prion Protein mRNA Translation in H4 Neuroglioblastoma Cells. [Related pubchem assays: 1827 (Project Summary), 1813 (Primary HTS)]; assay type: functional

## COc1ccccc1-n1c([S-])c(C(=O)Nc2ccccc2C(F)(F)F)[n+]2ccc(C(=O)NCCO)cc12
[1]
  IC50: 6.82 µM (not active)

## O=S(=O)(c1ccc2c(c1)CCCN2)N1CCCC2CCCCC21 (configuration not stated)
[1]
  IC50: 12.4 µM (not active)

## O=C1C=C(O)c2cccc(O)c2C1=O
[2]
  IC50: 44.5 µM (active)

## COC(=O)c1c(NC(=O)c2ccc(S(=O)(=O)N3CCOCC3)cc2)sc2c1CCN(C)C2
[3]
  EC50: 23.8 µM (active)
[4]
  EC50: 14.9 µM (active)

## O=C1c2ccccc2C(=O)N1CCCCSc1nnnn1-c1ccccc1
[1]
  IC50: 9.41 µM (not active)

## O=C1CC(c2ccccc2)CC(=O)C1=CNc1cccc(Cl)c1 (configuration not stated)
[5]
  AC50: 4.94 µM (active)
[6]
  AC50: 19.8 µM (active)

## CCC(=O)n1nc(NCc2ccccc2OC)nc1NCc1ccccc1OC
[7]
  EC50: 1.68 µM (active)

## O=C(CSC1=NCCS1)Nc1ccc(S(=O)(=O)N2CCCCCC2)cc1
[8]
  AC50: 21.8 µM (active)
[7]
  EC50: 7.64 µM (active)
Protein RecA
  EC50: 10.1 µM (active)

## COc1ccc(OC)c2sc(N3CCN(C(=O)c4ccc5ncsc5c4)CC3)nc12
Cells [9]
  EC50: > 350 µM (not active)
Cells [10]
  EC50: > 350 µM (not active)

## CC(C)=CC(=O)OCC(=O)NC(=O)NC(C)(C)C
[1]
  IC50: > 50 µM (not active)

## CCNc1nc(NCC)n2c(SC(C(=O)Nc3cc(Cl)cc(Cl)c3)c3ccccc3)nnc2n1 (configuration not stated)
[3]
  EC50: 5.99 µM (active)
[4]
  EC50: 6.35 µM (active)
[11]
  CC50: 6.19 µM (active)
[12]
  AC50: 1.59 µM (active)

## CCOc1ccc2nc(Cl)c(C3CC(c4ccccc4)=NN3C(=O)c3cccs3)cc2c1 (configuration not stated)
[3]
  EC50: 4.07 µM (active)
[4]
  EC50: 3.9 µM (active)

## CCCCOc1ccc(C(=O)NCC(=O)OC2CCOC2=O)cc1 (configuration not stated)
Cells [9]
  EC50: > 350 µM (not active)
Cells [10]
  EC50: > 350 µM (not active)

## COCc1ccc(C(=O)N2CCCC(CCC(=O)NCc3ccccc3F)C2)o1 (configuration not stated)
Cells [9]
  EC50: > 350 µM (not active)
Cells [10]
  EC50: > 350 µM (not active)

## c1ccc(-c2ccccc2-c2nc(-c3cccnc3)no2)cc1
[7]
  EC50: 8.07 µM (active)

## CC(C)Sc1oc(-c2ccco2)nc1S(=O)(=O)c1ccc(F)cc1
[7]
  EC50: 7.9 µM (active)

## Cc1cccc(OCCCSc2nc3ccccc3[nH]2)c1
[7]
  EC50: 3.47 µM (active)

## COc1cccc(C2=CC(c3cccs3)n3nnnc3N2)c1 (configuration not stated)
[1]
  IC50: 1.42 µM (not active)

## COc1ccc(CC(=O)Nc2ccc(-c3noc(-c4cccc(OC)c4)n3)cc2)cc1
[3]
  EC50: 14.9 µM (active)
[4]
  EC50: 11.8 µM (active)
Cytochrome P450 2C19
  AC50: 4.47 µM (inconclusive)
Cytochrome P450 3A4
  AC50: 1 µM (inconclusive)

## COc1cc(CNc2ccc3c(c2)CCC3)cc(OC)c1O
Large T antigen
  IC50: > 100 µM (active)

## CC(=O)Nc1ccc(S(=O)(=O)N2CCc3c(Cl)cccc3C2)cc1
[7]
  EC50: 4.82 µM (active)

## C#CCN1C(=O)C(O)(CC(=O)c2cccc(OC)c2)c2ccccc21 (configuration not stated)
[3]
  EC50: 19.2 µM (active)
[4]
  EC50: 19.3 µM (active)

## CCOC(=O)C(NC(C)=O)(N1CCOCC1)C(F)(F)F (configuration not stated)
Cells [9]
  EC50: > 350 µM (not active)
Cells [10]
  EC50: > 350 µM (not active)

## CN(CCS(=O)(=O)c1ccc(Cl)cc1)Cc1cccnc1
Cells [9]
  EC50: > 350 µM (not active)
Cells [10]
  EC50: > 350 µM (not active)

## COc1ccc(-c2cc(C(=O)NC(Cc3cc4ccccc4[nH]3)C(=O)O)c(C)o2)cc1OC (configuration not stated)
[1]
  IC50: 4.12 µM (not active)

## O=c1c2ccccc2nc2sc(Nc3ccc(F)cc3)nn12
[2]
  IC50: 8.04 µM (active)

## O=C(CSc1nc2ccccc2[nH]1)NC1CCCC1
[2]
  IC50: 6.85 µM (active)

## O=C(CSc1ncccc1-c1nc2ccccc2[nH]1)NCc1ccco1
[2]
  IC50: 10.3 µM (active)

## O=C(/C=C/c1cccc(OCc2ccccc2)c1)c1cccnc1
[3]
  EC50: 5.59 µM (active)
[4]
  EC50: 3.79 µM (active)

## O=C(Nc1ccccc1F)c1cc(-c2ccco2)nc2ccccc12
[2]
  IC50: 8.25 µM (active)

## Cc1c(Cl)cccc1NC(=S)N/N=C/c1ccccc1Cl
Cells [9]
  EC50: > 350 µM (not active)
Cells [10]
  EC50: > 350 µM (not active)

## O=C(N/N=C1/CCCc2ccccc21)c1cc([N+](=O)[O-])cc([N+](=O)[O-])c1
[1]
  IC50: 21.8 µM (not active)

## CCO/C(O)=C1\C(C)=NC2=C(C1c1ccc([N+](=O)[O-])cc1)S(=O)(=O)c1ccccc12 (configuration not stated)
[3]
  EC50: 29 µM (active)
[4]
  EC50: 31.4 µM (active)
[13]
  EC50: 23.9 µM (active)
[14]
  EC50: 17.2 µM (active)
[15]
  EC50: 17.8 µM (active)

## CC(C)(C)CC(C)(C)c1ccc(OCC(=O)N/N=C/c2ccc(S(=O)(=O)O)o2)cc1
[1]
  IC50: > 50 µM (not active)
